Laboratory results taken from ChEMBL document CHEMBL5537169, “Structure-Activity Relationships and Discovery of (S)-6-Isopropyl-2-methoxy-3-(3-methoxypropoxy)-10-oxo-5,10-dihydro-6H-pyrido[1,2-h][1,7]naphthyridine-9-carboxylic Acid (AB-452), a Novel Orally Available HBV RNA Destabilizer” (J Med Chem, 2024).
In brackets after ≈: the same amount, converted by molar mass.

Legend:
[1] = Half life in Sprague-Dawley rat at 10 mg/kg,po measured at 0.083 to 24 hrs post administration by LC-MS/MS analysis; format: ADME, organism-based; details: Sprague-Dawley, in vivo, time 0.083-24 hrs
[2] = Cmax in Beagle dog at 2 mg/kg,iv measured at 0.083 to 24 hrs post administration by LC-MS/MS analysis; format: ADME, organism-based, Canis lupus familiaris; details: in vivo, time 0.083-24 hrs
[3] = AUCinfinity in Sprague-Dawley rat at 10 mg/kg,po measured at 0.083 to 24 hrs post administration by LC-MS/MS analysis; format: ADME, organism-based; details: in vivo, time 0.083-24 hrs; for AUC(0-inf): Sprague-Dawley
[4] = AUCinfinity in CD-1 mouse at 10 mg/kg,po measured at 0.083 to 24 hrs post administration by LC-MS/MS analysis; format: ADME, organism-based; details: in vivo, time 0.083-24 hrs
Hepatitis B virus = assay: Antiviral activity against HBV infected in human HepG2.2.15 cells assessed as inhibition of HBsAg level incubated for 6 days by microplate-based chemiluminescence immunoassay; format: functional, organism-based; details: HepG2 2.2.15, 144 h
[5] = Drug accumulation in Beagle dog plasma assessed as fold change in drug uptake at 10 mg/kg,po measured at 0.083 to 24 hrs post administration by LC-MS/MS analysis; format: ADME, organism-based, Canis lupus familiaris; details: in vivo, time 0.083-24 hrs
[6] = Cardiotoxicity in Langendorff-perfused New Zealand White rabbit heart assessed as decrease in left ventricular contractility at 10 uM incubated for 45 mins by ECG analysis; format: toxicity, tissue-based, Oryctolagus cuniculus; set-up: scale not given: the % may be the effect or the level left; details: 0.75 h
[7] = Protein binding in human plasma assessed as fraction unbound at 2 uM incubated for 6 hrs by equilibrium dialysis based LC-MS/MS analysis; format: ADME, cell-free
[8] = Oral bioavailability in Sprague-Dawley rat at 10 mg/kg measured at 0.083 to 24 hrs by LC-MS/MS analysis; format: ADME, organism-based; details: in vivo, time 0.083-24 hrs; for bioavailability: Sprague-Dawley
[9] = Kinetic solubility of compound in PBS at pH 7.4 incubated for 24 hrs by UPLC-UV analysis; format: physicochemical; details: read-out: Kinetic_solubility
[10] = Apparent volume of distribution at steady state in Beagle dog at 2 mg/kg,iv measured at 0.083 to 24 hrs post administration by LC-MS/MS analysis; format: ADME, organism-based, Canis lupus familiaris; details: in vivo, time 0.083-24 hrs; for Vd: Beagle, read-out: Vdss(app)
[11] = Cmax in Beagle dog at 10 mg/kg,po measured at 0.083 to 24 hrs post administration by LC-MS/MS analysis; format: ADME, organism-based, Canis lupus familiaris; details: in vivo, time 0.083-24 hrs
[12] = AUCinfinity in Beagle dog at 10 mg/kg,po measured at 0.083 to 24 hrs post administration by LC-MS/MS analysis; format: ADME, organism-based, Canis lupus familiaris; details: in vivo, time 0.083-24 hrs
[13] = AUCinfinity in Beagle dog at 2 mg/kg,iv measured at 0.083 to 24 hrs post administration by LC-MS/MS analysis; format: ADME, organism-based, Canis lupus familiaris; details: in vivo, time 0.083-24 hrs; for AUC(0-inf): Beagle
Cytochrome P450 2B6 = molecular target: T1, Cytochrome P450 2B6 (Homo sapiens, UniProt P20813); assay: Reversible inhibition of CYP2B6 in human liver microsomes using bupropion as substrate pre-incubated for 30 mins followed by NADPH addition and measured after 10 mins by LC-MS/MS analysis; format: ADME, Microsome
T1 sequence (P20813 whole entry): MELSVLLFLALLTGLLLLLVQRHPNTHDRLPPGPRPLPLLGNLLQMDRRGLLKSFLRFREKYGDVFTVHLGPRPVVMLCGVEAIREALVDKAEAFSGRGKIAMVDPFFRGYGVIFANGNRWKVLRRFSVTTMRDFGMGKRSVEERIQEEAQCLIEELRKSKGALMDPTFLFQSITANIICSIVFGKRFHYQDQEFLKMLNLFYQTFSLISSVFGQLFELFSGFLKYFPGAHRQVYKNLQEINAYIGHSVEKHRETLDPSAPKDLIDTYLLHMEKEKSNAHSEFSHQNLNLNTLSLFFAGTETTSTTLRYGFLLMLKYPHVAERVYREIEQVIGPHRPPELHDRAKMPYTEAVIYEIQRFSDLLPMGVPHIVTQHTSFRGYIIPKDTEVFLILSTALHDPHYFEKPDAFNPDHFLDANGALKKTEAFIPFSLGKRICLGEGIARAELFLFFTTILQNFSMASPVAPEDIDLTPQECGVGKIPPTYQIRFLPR

Cytochrome P450 2C19 = Cytochrome P450 2C19 (Homo sapiens, UniProt P33261); assay: Reversible inhibition of CYP2C19 in human liver microsomes using S-mephenytoin as substrate pre-incubated for 30 mins followed by NADPH addition and measured after 10 mins by LC-MS/MS analysis; format: ADME, Microsome
[14] = Cmax in CD-1 mouse at 10 mg/kg,po measured at 0.083 to 24 hrs post administration by LC-MS/MS analysis; format: ADME, organism-based; details: in vivo, time 0.083-24 hrs
[15] = Half life in CD-1 mouse at 10 mg/kg,po measured at 0.083 to 24 hrs post administration by LC-MS/MS analysis; format: ADME, organism-based; details: in vivo, time 0.083-24 hrs
[16] = Half life in Beagle dog at 10 mg/kg,po measured at 0.083 to 24 hrs post administration by LC-MS/MS analysis; format: ADME, organism-based, Canis lupus familiaris; details: in vivo, time 0.083-24 hrs
[17] = Clearance in CD-1 mouse at 2 mg/kg,iv measured at 0.083 to 24 hrs post administration by LC-MS/MS analysis; format: ADME, organism-based; details: in vivo, time 0.083-24 hrs
Cytochrome P450 1A2 = molecular target: T2, Cytochrome P450 1A2 (Homo sapiens, UniProt P05177); assay: Reversible inhibition of CYP1A2 in human liver microsomes using phenacetin as substrate pre-incubated for 30 mins followed by NADPH addition and measured after 10 mins by LC-MS/MS analysis; format: ADME, Microsome
T2 sequence (P05177 whole entry): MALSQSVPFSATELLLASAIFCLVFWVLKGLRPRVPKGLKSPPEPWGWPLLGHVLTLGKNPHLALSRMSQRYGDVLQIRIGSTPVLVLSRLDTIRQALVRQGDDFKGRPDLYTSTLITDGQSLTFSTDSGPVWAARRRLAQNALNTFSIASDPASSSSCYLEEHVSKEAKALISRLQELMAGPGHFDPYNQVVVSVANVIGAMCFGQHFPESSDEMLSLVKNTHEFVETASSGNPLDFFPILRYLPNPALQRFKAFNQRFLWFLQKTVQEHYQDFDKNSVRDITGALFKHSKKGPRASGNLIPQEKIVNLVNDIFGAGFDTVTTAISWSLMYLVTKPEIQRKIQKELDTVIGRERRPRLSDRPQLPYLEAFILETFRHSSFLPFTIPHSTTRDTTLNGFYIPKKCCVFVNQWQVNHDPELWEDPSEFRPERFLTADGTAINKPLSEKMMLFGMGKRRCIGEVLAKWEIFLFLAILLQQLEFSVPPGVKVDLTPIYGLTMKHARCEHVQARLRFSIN

[18] = Oral bioavailability in CD-1 mouse at 10 mg/kg measured at 0.083 to 24 hrs by LC-MS/MS analysis; format: ADME, organism-based; details: in vivo, time 0.083-24 hrs
[19] = Protein binding in mouse plasma assessed as fraction unbound at 2 uM incubated for 6 hrs by equilibrium dialysis based LC-MS/MS analysis; format: ADME, cell-free
[20] = Half life in Beagle dog at 2 mg/kg,iv measured at 0.083 to 24 hrs post administration by LC-MS/MS analysis; format: ADME, organism-based, Canis lupus familiaris; details: in vivo, time 0.083-24 hrs; for half-life: Beagle
[21] = Oral bioavailability in Beagle dog at 10 mg/kg measured at 0.083 to 24 hrs by LC-MS/MS analysis; format: ADME, organism-based, Canis lupus familiaris; details: in vivo, time 0.083-24 hrs

Sequence of Cytochrome P450 2C19 (P33261 whole entry): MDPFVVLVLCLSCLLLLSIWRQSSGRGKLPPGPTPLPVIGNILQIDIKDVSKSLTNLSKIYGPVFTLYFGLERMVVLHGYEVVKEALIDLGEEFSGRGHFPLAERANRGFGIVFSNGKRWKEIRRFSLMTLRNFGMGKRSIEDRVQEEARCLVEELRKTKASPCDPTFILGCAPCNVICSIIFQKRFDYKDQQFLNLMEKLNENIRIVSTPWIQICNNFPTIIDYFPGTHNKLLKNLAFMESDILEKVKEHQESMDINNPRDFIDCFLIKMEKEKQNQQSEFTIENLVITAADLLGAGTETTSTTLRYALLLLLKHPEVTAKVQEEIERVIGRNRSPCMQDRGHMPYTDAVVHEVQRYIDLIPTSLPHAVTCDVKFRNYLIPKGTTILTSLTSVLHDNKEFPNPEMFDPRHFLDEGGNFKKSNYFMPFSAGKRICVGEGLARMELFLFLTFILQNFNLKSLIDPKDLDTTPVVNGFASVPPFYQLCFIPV

Row | half-life [1] [h] | Cmax [2] [ng/mL] | AUC(0-inf) [4] [ng·h/mL] | EC50 (Hepatitis B virus) [µM] | fold change (FC) [5] | fraction unbound at 6 h, 2 µM [7] | solubility kinetic at 24 h [9] [µM] | Cmax [11] [ng/mL] | AUC(0-inf) [12] [ng·h/mL] | IC50 (Cytochrome P450 2B6) [µM] | IC50 (Cytochrome P450 2C19) [µM] | Cmax [14] [ng/mL] | half-life [15] [h] | half-life [16] [h] | clearance [17] [mL/min/kg] | IC50 (Cytochrome P450 1A2) [µM] | bioavailability [18] [%] | fraction unbound at 6 h, 2 µM [19] | bioavailability [21] [%] | Structure (SMILES) | Activity [6] | other results
1 | 3.4 | 1500 | 6150 | 0.0012 | 0.6 | 0.44 | 190 (≈ 76.3 µg/mL) | 4030 | 13000 | > 25 | > 25 | 1840 | 2 | 1.6 | 26 | > 25 | 96 | 0.5 | 110 | COCCCOc1cc2c(cc1OC)-c1cc(=O)c(C(=O)O)cn1[C@H](C(C)C)C2 | 20% | AUC(0-inf) [3]: 6720 ng·h/mL; bioavailability [8]: 28%; Vdss(app) ([10]; iv, 2 mg/kg): 1.7 L/kg; AUC ([13]; iv, 2 mg/kg): 2362 ng·h/mL; t1/2 ([20]; iv, 2 mg/kg): 1.5 h
2 | 2.8 | 2060 | 5880 | 0.012 | < 0.1 | 0.14 | > 200 | 3130 | 10700 | > 25 | > 25 | 702 | 1.2 | 1.7 | 20 | > 25 | 63 | 0.2 | 63 | COCCCOc1cc2c(cc1Cl)-c1cc(=O)c(C(=O)O)cn1[C@H](C(C)C)CO2 | 20% | AUC ([3]; po, 10 mg/kg): 10300 ng·h/mL; F ([8]; po, 10 mg/kg): 14%; Vd [10]: 1 L/kg; AUC(0-inf) [13]: 3370 ng·h/mL; half-life [20]: 1.4 h

Row | Structure (SMILES) | half-life [1] [h] | Cmax [2] [ng/mL] | AUC(0-inf) [4] [ng·h/mL] | EC50 (Hepatitis B virus) [µM] | fold change (FC) [5] | fraction unbound at 6 h, 2 µM [7] | solubility kinetic at 24 h [9] [µM] | Cmax [11] [ng/mL] | AUC(0-inf) [12] [ng·h/mL] | IC50 (Cytochrome P450 2B6) [µM] | IC50 (Cytochrome P450 2C19) [µM] | Cmax [14] [ng/mL] | half-life [15] [h] | half-life [16] [h] | clearance [17] [mL/min/kg] | IC50 (Cytochrome P450 1A2) [µM] | bioavailability [18] [%] | fraction unbound at 6 h, 2 µM [19] | bioavailability [21] [%] | Activity [6] | other results
3 | COCCCOc1cc2c(nc1OC)-c1cc(=O)c(C(=O)O)cn1[C@H](C(C)C)C2 | 3.4 | 2310 | 5680 | 0.001 | 7.5 | 0.5 | > 200 | 6740 | 31500 | > 25 | > 25 | 1110 | 5.8 | 2.8 | 30 | > 25 | 99 | 0.46 | 98 | Non-Toxic | AUC(0-inf) [3]: 14100 ng·h/mL; bioavailability [8]: 80%; Vd [10]: 0.8 L/kg; AUC(0-inf) [13]: 6410 ng·h/mL; half-life [20]: 2.3 h
